Results as given in patent US20140045809A1, “CORROLES FOR NEUROPROTECTION AND NEURORESCUE” (priority 2008, published 2014).
“Also recorded” adds a separate entry of the source.

How the values were obtained:
[1] = SOD activity (catalytic decomposition of superoxide anion radical), cytochrome C assay; type: biochemical
Description: (§1) SOD activity (enzyme-like catalytic decomposition of superoxide anion radical) of the corroles 1C-Fe, 6C-Fe, 1C-Mn, 1C-Cu, 2C-Mn and 3C-Mn was examined via the cytochrome C assay. The catalytic rate constants for decomposition of peroxynitrite (PN) by the newly prepared iron corrole 6C-Fe and manganese corrole 3C-Mn were determined via stopped-flow kinetics as previously described for corroles 1C-Fe, 1C-Mn, and 2C-Mn (Mahammed and Gross, 2006; Gershman et al., 2007). These tests are performed in order to estimate how electronic and structural variables affect reactivity, which is a crucial factor for design of new complexes.

RIN-m cells [2] = experiment: Protection of RIN-m beta cells against H2O2 toxicity (MTT); type: cell-based, rat; conditions: H2O2 150 μM
Description: Two insulin-secreting beta cell lines, rat insulinoma (INS-1E) and RIN-m cells, were used to examine the protective effect of corrole 1C-Fe. The cells were cultured at 37° C., in a humid 5% CO2, 95% air environment in regular RPMI-1640 medium (Invitrogen) supplemented with 5% fetal calf serum (FCS).
After 2 days of culture, RIN-m cells (5×10^4 cells/well in 96-well plates) were treated with corrole 1C-Fe (1-50 μM) before addition of 35 μM of H2O2. Cell viability was evaluated by a colorimetric assay for mitochondrial function estimation using the MTT test as previously described (Gassen et al., 1998) and expressed as percentage of control.
RIN-m cells were grown as described in Example 5. After 3 days of culture, RIN-m cells (2.5×10^4 cells/well in 96-well plates) were treated with corroles 1C-Fe or 5C-Fe or porphyrin 1P-Fe (1 and 20 μM), added 30 min prior to treatment with 35 μM H2O2 and further incubated for 24 h. Cell injury was evaluated by MTT test. […] […].
Protective effect of iron(III) corrole complexes against H2O2-induced toxicity (150 μM) was compared to that of manganese(III) corroles and related porphyrin. […].

[3] = Catalytic decomposition of peroxynitrite (PN), stopped-flow kinetics (Table 1); type: biochemical
Description: as §1

[4] = Rescuing DMSO from damage attributed to the hydroxyl radical (Fenton reaction); type: biochemical; conditions: for Yield (%) or amount of product (Formaldehyde): substrate DMSO
Source text: Corrole complexes were examined with respect to their efficiency of rescuing DMSO from damage attributed to the hydroxyl radical, formed via the Fenton reaction that also involves superoxide anion radical and hydrogen […]. It also mimics reaction occurring in biological systems that are exposed to metal toxicity, the situation that occurs in diseases caused by brain iron accumulation.

RIN-m cells [5] = experiment: Protection of RIN-m cells against SIN-1 toxicity (MTT); type: cell-based, rat; conditions: 0.1-20 μM, 30 min before SIN-1 (800 μM), 24 h
Description: INS-1E cells or RIN-m cells were cultured in RPMI with low serum content (2% FCS), placed in microtiter plates (96 wells) at a density of 2.5×10^4 cells/well and allowed to attach for 24 h before treatment. Corroles 1C-Fe and 5C-Fe (10 μM) were added 30 min prior to insult with the nitric oxide donor SIN-1 (500 or 600 μM) for a subsequent 24 h period. Cell viability was evaluated by a colorimetric assay for mitochondrial function using 3-(4,5-dimethylthiazol-2-yl)-2,5-diphenyltetrazolium bromide (MTT test), and expressed as percentage of untreated control. Values higher than 100% reflect increased mitochondrial activity induced by the drug. The results represent the mean±SEM of three independent experiments performed under the same conditions.
Insulin-secreting RIN-m cells were incubated in RPMI with low serum content (2% FCS) and placed in microtiter plates (96 wells) at a density of 2.5×10^4 cells/well and allowed to attach for 24 h before treatment. Cells were treated with corroles 1C-Fe, 1C-Mn or 2C-Mn or porphyrins 1P-Fe or 2P-Mn, in various concentrations (0.1-20 μM), for 30 min prior to insult with SIN-1 (800 μM) for a subsequent 24 h period. Cell viability was evaluated by MTT test and expressed as percentage of untreated control.

[6] = Peroxynitrite decomposition rates by manganese corroles (Example 2); type: biochemical; conditions: 385 μM peroxynitrite, pH 7.4, 25° C., absorbance at 302 nm; Table 2
Description: The investigations were performed by examining the decay of 385 μM peroxynitrite at pH 7.4 and 25° C. in the presence and absence of various amounts of Mn corrole catalysts 2C-Mn, 2C′-Mn, 2C″-Mn, 3C-Mn and 4C-Mn. The differences between 2C-Mn, 2C′-Mn, and 2C″-Mn is in the identity of the 10-aryl group, which is C6F5, para-anisyl, and phenyl, respectively. The results (one example using 4C-Mn is shown in FIG. 1) were obtained by monitoring changes in absorbance at 302 nm, the λmax of peroxynitrite. The catalytic performances of five of the above compounds were tested; and the thus elucidated kcat values are presented in Table 2. Importantly, in sharp contrast with the corroles, none of the structurally similar manganese (III) porphyrin complexes affected the decomposition of peroxynitrite by any extent (not shown).

nitrotyrosine (Ntyr) = experiment: SIN-1-induced cellular protein nitration, nitrotyrosine immunofluorescence in SH-SY5Y cells; type: cell-based, human; conditions: 20 μM corrole, SIN-1 700 μM, 24 h
Description: To determine the effect of the corroles on SIN-1-induced cellular protein nitration, SH-SY5Y neuroblastoma cells were treated with SIN-1 (700 μM) in the absence or presence of 20 μM of the corroles 1C-Fe, 2C-Mn, and 3C-Mn. Protein nitration was detected by immunofluorescence analysis using a monoclonal antibody against nitrotyrosine (Ntyr), a biological marker of peroxynitrite.

SH-SY5Y cells [7] = type: cell-based; conditions: up to 50 μM; data not shown
cleaved caspase-3 = experiment: Cleaved caspase-3 level in 6-OHDA-treated SH-SY5Y cells, immunofluorescence; type: cell-based, human; conditions: 20 μM, 30 min before 6-OHDA (40 μM), 24 h
Description: (§2) SH-SY5Y cells were pretreated with or without corroles 1C-Fe, 2C-Mn and 3C-Mn and porphyrins 1P-Fe and 2P-Mn (20 μM), 30 min before exposure to 6-OHDA (40 μM) for a subsequent 24 h period. Cell viability was evaluated by MTT test and cell death was assessed using the apoptotic cell death detection ELISA kit. For neurorescue, SH-SY5Y cells were first exposed to 40 μM 6-OHDA for 0.5. 1, 1.5 and 3 h, followed by the addition of the compounds 1C-Fe, 2C-Mn and 3C-Mn (20 μM) and incubated for further 24 h. Growth-associated protein (GAP-43) was detected by fluorescence microscopy using a specific primary antibody. Apoptotic nuclei were determined by terminal deoxynucleotidyl transferase-mediated UTP-digoxigenin nick end labeling analysis. 4′,6-Diamidino-2-phenylnidole (DAPI) staining was applied for nuclear labeling. […]
Since 6-OHDA is also known to induce apoptosis in various cell types, including SH-SY5Y (von Coelln et al. 2001; Nie et al. 2002; Shimizu et al. 2002; Jordan et al. 2004), we further tested effect of corroles on the levels of the apoptotic marker, cleaved caspase-3, a major executer of the mitochondrial intrinsic pathway of apoptosis.

SH-SY5Y cells [8] = experiment: Neuroprotection/neurorescue against SIN-1-induced cell death in SH-SY5Y cells; type: cell-based, human
Description: SH-SY5Y cells were cultured in DMEM-Eagle/F-12(HAM) (1:1) containing 10% FCS. Cells were resuspended in medium containing 2% FCS, seeded in microtiter plates (96 wells) and allowed to attach for 24 h before initiation of treatment. […]

SH-SY5Y cells [9] = type: cell-based; conditions: 20 μM
Description: SH-SY5Y cells were cultured in DMEM-Eagle/F-12(HAM) (1:1) containing 10% FCS. Cells were resuspended in medium containing 2% FCS, seeded in microtiter plates (96 wells) and allowed to attach for 24 h. To examine the neuroprotective effect, cells were pretreated for 30 min with corroles 1C-Fe and 5C-Fe (1-20 μM), and were then exposed to 6-OHDA (60 μM) for further 24 h. For neurorescue assessment, SH-SY5Y cells were first treated with 6-OHDA (60 μM) for 0.5 h, 1.5 h, 3 h and 6 h followed by the addition of compounds 1C-Fe and 5C-Fe (10 μM) for further 24 h.
as §2

[10] = CuSO4/ascorbate, no additive 44 μM
[11] = CuSO4/glutathione, no additive 11 μM
[12] = 30 min before 6-OHDA (40 μM), 24 h

SMILES: O=S(=O)(O)c1cc2[n]3c1C(c1c(F)c(F)c(F)c(F)c1F)=C1C=CC4=[N+]1[Cu-]31[n]3c(cc(S(=O)(=O)O)c3-2)C(c2c(F)c(F)c(F)c(F)c2F)=c2ccc([n]21)=C4c1c(F)c(F)c(F)c(F)c1F (centres unmarked) [1C-Cu, 2,17-bis(sulfonato)-5,10,15-tris(pentafluorophenyl)-corrolato copper(III)]
- IC50 [1]: 12 µM

SMILES: O=S(=O)(O)c1cc2[n]3c1C(c1c(F)c(F)c(F)c(F)c1F)=C1C=CC4=[N+]1[Mn-]31[n]3c(cc(S(=O)(=O)O)c3-2)C(c2c(F)c(F)c(F)c(F)c2F)=c2ccc([n]21)=C4c1c(F)c(F)c(F)c(F)c1F (centres unmarked) [1C-Mn, 2,17-bis(sulfonato)-5,10,15-tris(pentafluorophenyl)-corrolato manganese(III)]
- cytoprotective effect against H2O2-induced toxicity (RIN-m cells [2]): totally inefficient; also recorded: inefficiency
- IC50 [1]: 5.9 µM
- kcat, catalytic rate constant for decomposition of PN [3]: 40000 M⁻¹ s⁻¹
- Yield (%) or amount of product (Formaldehyde) [4, 10]: 20 µM
- Yield (%) or amount of product (Formaldehyde) [4, 11]: 7 µM
- protective effect against SIN-1 induced toxicity (MTT), comparative (RIN-m cells [5]): ineffective

SMILES: C[n+]1ccc(C2=C3C=CC4=[N+]3[Mn-]35[n]6c2ccc6-c2ccc([n]23)C(c2cc[n+](C)cc2)=c2ccc([n]25)=C4c2ccccc2)cc1 (centres unmarked) [2C″-Mn]
- kcat, peroxynitrite decomposition rate [6]: 81000 M⁻¹ s⁻¹

SMILES: COc1c(F)c(F)c(C2=C3C=CC4=[N+]3[Fe-]35[n]6c(cc(S(=O)(=O)O)c62)-c2c(S(=O)(=O)O)cc([n]23)C(c2c(F)c(F)c(OC)c(F)c2F)=c2ccc([n]25)=C4c2c(F)c(F)c(OC)c(F)c2F)c(F)c1F (centres unmarked) [6C-Fe, 2,17-bis-sulfonato-5,10,15-tris(p-methoxy-tetra-fluorophenyl)iron(III) corrole]
- IC50 [1]: 1.18 µM

SMILES: C[n+]1ccccc1C1=C2C=CC3=[N+]2[Mn-]24[n]5c1ccc5-c1ccc([n]12)C(c1cccc[n+]1C)=c1ccc([n]14)=C3c1c(F)c(F)c(F)c(F)c1F (centres unmarked) [4C-Mn, 5,15-bis(N-methyl-2-pyridilium) 10-pentafluorophenyl corrolato manganese(III)]
- kcat, peroxynitrite decomposition rate [6]: 160000 M⁻¹ s⁻¹

SMILES: C[n+]1ccccc1C1=C2C=CC3=[N+]2[Mn-]24[n]5c1ccc5-c1ccc([n]12)C(c1cccc[n+]1C)=c1ccc([n]14)=C3c1cccc[n+]1C (centres unmarked) [3C-Mn, 5,10,15-tris(N-methyl-2-pyridilium)corrolato manganese(III)]
- nitrotyrosine (Ntyr) staining, SIN-1-induced (nitrotyrosine (Ntyr)): totally abolished
- IC50 [1]: 3.27 µM
- kcat, catalytic rate constant for decomposition of PN [3]: 25000 M⁻¹ s⁻¹
- Yield (%) or amount of product (Formaldehyde) [4, 10]: 0 µM
- Yield (%) or amount of product (Formaldehyde) [4, 11]: 0 µM
- preventing oxidative damage / protection against metal-induced oxidation of substrates ([4]; summary of Table 3): protect better than corrole 1C-Mn
- preventing H2O2-mediated cytotoxicity (SH-SY5Y cells [7]): not effective
- 6-OHDA-induced increase of cleaved caspase-3 (cleaved caspase-3): totally
- kcat, peroxynitrite decomposition rate [6]: 25000 M⁻¹ s⁻¹
- cytoprotection against different SIN-1 concentrations (SH-SY5Y cells [8]; 25 μM corrole, FIG. 12C): protect cells against different SIN-1 concentrations
- protection against SIN-1 (MTT reduction analysis and ELISA assay) (SH-SY5Y cells [8]; 30 min before SIN-1, 24 h (Example 12)): protect, in a dose-dependent manner; also recorded: more effective not only than 2C-Mn
- protection against 6-OHDA compared with porphyrins 1P-Fe and 2P-Mn (SH-SY5Y cells [9]; 6-OHDA 40 μM, immunofluorescence): remarkable superiority over the porphyrins
- 6-OHDA-induced cytotoxicity (MTT, cell death ELISA) (SH-SY5Y cells [9]; [12]): significantly attenuated 6-OHDA-induced cytotoxicity
- cell mortality, morphology and apoptotic nuclei (GAP-43 immunofluorescence, TUNEL, DAPI) (SH-SY5Y cells [9]; [12]): significantly attenuated 6-OHDA-induced cell mortality, improved cell morphology and reduced the number of apoptotic nuclei

SMILES: C[n+]1ccc(C2=C3C=CC4=[N+]3[Mn-]35[n]6c2ccc6C(c2c(F)c(F)c(F)c(F)c2F)=C2C=CC(=[N+]23)C(c2cc[n+](C)cc2)=c2ccc([n]25)=C4c2c(F)c(F)c(F)c(F)c2F)cc1.[I-].[I-] (centres unmarked) [2P-Mn, 5,15-bis(N-methyl-4-pyridilium)-10,20-bis-(pentafluoro-phenyl)porphyrinato manganese(III) diiodide salt, reference compound]
- cytoprotective effect against H2O2-induced toxicity (RIN-m cells [2]): totally inefficient; also recorded: inefficiency

SMILES: COc1ccc(C2=c3ccc4[n]3[Mn-]35[n]6c(ccc6-c6ccc([n]63)C=4c3cc[n+](C)cc3)C(c3cc[n+](C)cc3)=C3C=CC2=[N+]35)cc1 (centres unmarked) [2C′-Mn]
- kcat, peroxynitrite decomposition rate [6]: 77000 M⁻¹ s⁻¹
